Measurements: patent US9416141B2 (University of Washington through its Center for …, priority 2012, dated 2016)
Where a name gives a salt, the structure may show the parent alone.

System: hair cells
Test: Hair cell toxicity assay in zebrafish (neomycin-induced hair cell death, DASPEI staining of neuromasts)
Type: in vivo
Conditions: Danio rerio; for Emax at 2.8 µM: maximum observed @ 2.8 μM test compound; for Emax at 25 µM: maximum observed @ 25 μM test compound; for EC50: zebrafish larvae 5-7 dpf, 1 h pre-treatment, then 200 micromolar neomycin + test compound 30 min, read-out: HC50 (concentration that would produce 50% hair cell survival); for Emax at 8.3 µM: maximum observed @ 8.3 μM test compound
Summary of the method: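 Zebrafish larvae 5-7 dpf pre-treated 1 h with compound (0.010-25 μM), then 30 min with 200 μM neomycin plus compound. DASPEI stained 10 neuromasts per fish, scored 0-2 (total 0-20), normalised to vehicle controls as % hair cell survival. HC50 linearly interpolated if survival reached ≥50%; HCmax is maximum survival.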

[1] = 200 micromolar neomycin, read-out: Max HC Protection (HCmax, % hair cell survival)

SMILES	Emax at 2.8 µM [1]	Emax at 25 µM [1]	EC50	further results
CCOC(=O)CCN1CCc2c(sc(NC(=O)Nc3ccc(Cl)cc3)c2C(N)=O)C1 [Example 56, Ethyl 3-{3-carbamoyl-2-[3-(4-chlorophenyl)ureido]-4,5-dihydrothieno[2,3-c]pyridin-6(7H)-yl}propanoate hydrochloride]	48%	–	–	–
NC(=O)c1c(NC(=O)Nc2ccc(Cl)cc2)sc2c1CCN(CCN1CCOCC1)C2 [Example 46, 2-[3-(4-Chlorophenyl)ureido]-6-(2-morpholinoethyl)-4,5,6,7-tetrahydrothieno[2,3-c]pyridine-3-carboxamide trifluoroacetate]	–	79%	> 10000 nM	–
CC12CCC(C)(N1)c1sc(NC(=O)Nc3ccc(Cl)cc3)c(C(N)=O)c1C2 (racemic) [Example 123, (+/−)-2-[3-(4-Chlorophenyl)ureido]-5,8-dimethyl-5,6,7,8-tetrahydro-4H-5,8-epiminocyclohepta[b]thiophene-3-carboxamide trifluoroacetate]	60%	–	< 1000 nM	–
CCN1CCc2c(sc(NC(=O)Nc3ccc(Br)cc3)c2C(N)=O)C1 [Example 222, 2-{[(4-bromophenyl)carbamoyl]amino}-6-ethyl-4H,5H,6H,7H-thieno[2,3-c]pyridine-3-carboxamide]	–	90%	1000 to 10000 nM	–
CCN1CCc2c(sc(NC(=O)Nc3ccc(F)cc3)c2C(N)=O)C1 [Example 66, 6-Ethyl-2-[3-(4-fluorophenyl)ureido]-4,5,6,7-tetrahydrothieno[2,3-c]pyridine-3-carboxamide hydrochloride]	–	57%	> 10000 nM	–
NC(=O)c1c(NC(=O)Nc2ccc(Cl)cc2)sc2c1CCN(CCC(=O)O)C2 [Example 52, 3-{3-Carbamoyl-2-[3-(4-chlorophenyl)ureido]-4,5-dihydrothieno[2,3-c]pyridin-6(7H)-yl}propanoic acid trifluoroacetate]	–	33%	–	–
CC(C)(C)OC(=O)CC[N+]1(C)CCc2c(sc(NC(=O)Nc3ccc(Cl)cc3)c2C(N)=O)C1 (centres unmarked) [Example 151, 6-(3-tert-Butoxy-3-oxopropyl)-3-carbamoyl-2-[3-(4-chlorophenyl)ureido]-6-methyl-4,5,6,7-tetrahydrothieno[2,3-c]pyridin-6-ium iodide]	105%	–	< 1000 nM	–
CCN1CCc2c(sc(NC(=O)Nc3ccc(Cl)cc3)c2-c2nc(C)no2)C1 [Example 103, 1-(4-chlorophenyl)-3-[6-ethyl-3-(3-methyl-1,2,4-oxadiazol-5-yl)-4,5,6,7-tetrahydrothieno[2,3-c]pyridin-2-yl]urea hydrochloride]	–	–	–	Emax at 0.9 µM (maximum observed @ 0.9 μM test compound, 200 micromolar neomycin, read-out: Max HC Protection (HCmax, % hair cell survival)): 12%
C[N+]12CCCCC1Cc1c(sc(NC(=O)Nc3ccc(Cl)cc3)c1C(N)=O)C2 (racemic) [Example 177, (+/−)-3-Carbamoyl-2-[3-(4-chlorophenyl)ureido]-9-methyl-4,4a,5,6,7,8,9,10-octahydrothieno[3,2-b]quinolizin-9-ium iodide]	–	97%	1000 to 10000 nM	–
C[N+]1(CC2CCC2)CCc2c(sc(NC(=O)Nc3ccc4ccccc4c3)c2C(N)=O)C1 (centres unmarked) [Example 176, 3-Carbamoyl-6-(cyclobutylmethyl)-6-methyl-2-[3-(naphthalen-2-yl)ureido]-4,5,6,7-tetrahydrothieno[2,3-c]pyridin-6-ium iodide]	–	–	< 1000 nM	Emax at 8.3 µM [1]: 100%
CN1CCCC12CCc1c(sc(NC(=O)Nc3ccc(Cl)cc3)c1C(N)=O)C2 (racemic) [Example 111, (+/−)-2-[3-(4-chlorophenyl)ureido]-1′-methyl-5,7-dihydro-4H-spiro(benzo[b]thiophene-6,2′-pyrrolidine)-3-carboxamide hydrochloride]	55%	–	1000 to 10000 nM	–
CC[N+]1(C)CCc2c(sc(NC(=O)Nc3ccc(Cl)cc3)c2C(=O)N2CCOCC2)C1 (centres unmarked) [Example 179, 2-[3-(4-Chlorophenyl)ureido]-6-ethyl-6-methyl-3-(morpholine-4-carbonyl)-4,5,6,7-tetrahydrothieno[2,3-c]pyridin-6-ium chloride]	–	–	–	Emax at 8.3 µM [1]: 38%
CCN1Cc2sc(NC(=O)Nc3ccc(Cl)cc3)c(C(N)=O)c2C1 [Example 28, 2-[3-(4-Chlorophenyl)ureido]-5-ethyl-5,6-dihydro-4H-thieno[2,3-c]pyrrole-3-carboxamide hydrochloride]	–	–	1000 to 10000 nM	Emax at 8.3 µM [1]: 58%
CCN1CCc2c(sc(Nc3c(Nc4ccc(Cl)cc4)c(=O)c3=O)c2C(N)=O)C1 [Example 109, 2-({2-[(4-chlorophenyl)amino]-3,4-dioxocyclobut-1-en-1-yl}amino)-6-ethyl-4,5,6,7-tetrahydrothieno[2,3-c]pyridine-3-carboxamide hydrochloride]	–	22%	–	–
COCCC[N+]1(C)CCc2c(sc(NC(=O)Nc3ccc(Cl)cc3)c2C(N)=O)C1 (centres unmarked) [Example 141, 3-Carbamoyl-2-[3-(4-chlorophenyl)ureido]-6-(3-methoxypropyl)-6-methyl-4,5,6,7-tetrahydrothieno[2,3-c]pyridin-6-ium iodide]	77%	–	< 1000 nM	–
CC(C)(C)c1ccc(CCC(=O)NCCCN2CCc3c(sc(NC(=O)Nc4ccc(Cl)cc4)c3C(N)=O)C2)cc1 [Example 213, 6-{3-[3-(4-tert-butylphenyl)propanamido]propyl}-2-{[(4-chlorophenyl)carbamoyl]amino}-4H,5H,6H,7H-thieno[2,3-c]pyridine-3-carboxamide]	92%	–	< 1000 nM	–
C[N+]1(CC2CCCC2)CCc2c(sc(NC(=O)Nc3ccc(Cl)cc3)c2C(N)=O)C1 (centres unmarked) [Example 153, 3-Carbamoyl-2-[3-(4-chlorophenyl)ureido]-6-(cyclopentylmethyl)-6-methyl-4,5,6,7-tetrahydrothieno[2,3-c]pyridin-6-ium iodide]	–	–	< 1000 nM	Emax at 8.3 µM [1]: 98%
NC(=O)c1c(NC(=O)Nc2ccc(I)cc2)sc2c1CCN(CCCOCc1ccccc1)C2 [Example 207]	–	66%	1000 to 10000 nM	–
CC(C)(C)OC(=O)CCCCC[N+]1(C)CCc2c(sc(NC(=O)Nc3ccc(Cl)cc3)c2C(N)=O)C1 (centres unmarked) [Example 156, 6-(6-tert-Butoxy-6-oxohexyl)-3-carbamoyl-2-[3-(4-chlorophenyl)ureido]-6-methyl-4,5,6,7-tetrahydrothieno[2,3-c]pyridin-6-ium iodide]	96%	–	< 1000 nM	–
NC(=O)c1c(NC(=O)Nc2ccc(Cl)cc2)sc2c1CCN(CC1CC1)C2 [Example 1, 2-[3-(4-chlorophenyl)ureido]-6-(cyclopropylmethyl)-4,5,6,7-tetrahydrothieno[2,3-c]pyridine-3-carboxamide hydrochloride]	–	92%	1000 to 10000 nM	–
NC(=O)c1c(NC(=O)Nc2ccc(Cl)cc2)sc2c1CCN(CC(=O)O)C2 [Example 61, 2-{3-Carbamoyl-2-[3-(4-chlorophenyl)ureido]-4,5-dihydrothieno[2,3-c]pyridin-6(7H)-yl}acetic acid hydrochloride]	–	24%	–	–
NC(=O)c1c(NC(=O)Nc2ccc3ccccc3c2)sc2c1CCN(CC1CCC1)C2 [Example 35, 6-(Cyclobutylmethyl)-2-[3-(naphthalen-2-yl)ureido]-4,5,6,7-tetrahydrothieno[2,3-c]pyridine-3-carboxamide hydrochloride]	42%	–	–	–
CC(C)(C)CN1CCc2c(sc(NC(=O)Nc3ccc(Cl)c4ccccc34)c2C(N)=O)C1 [Example 41, 2-[3-(4-Chloronaphthalen-1-yl)ureido]-6-neopentyl-4,5,6,7-tetrahydrothieno[2,3-c]pyridine-3-carboxamide hydrochloride]	–	–	–	Emax at 8.3 µM [1]: 39%
